Data from patent US11364275B2, “Linear lipopeptide paenipeptins and methods of using the same” (priority 2017, dated 2022).
In brackets after ≈: the same amount, converted by molar mass. Entries after “also recorded” stand apart in the source; their conditions may differ. Where a SMILES comes first, the peptide text is derived from it. [ ]: non-standard residue; d: D form. The star is where a group is joined. Dab = NCC[C@H](N)C(=O)O; Hexanoyl = CCCCCC(=O)*

Key:
K. pneumoniae UAMS-KPPR1 = test: MIC, polymyxin-resistant strain; type: cell-based, Klebsiella pneumoniae
Description: (§3) The minimum inhibitory concentration (MIC) of paenipeptin analogues was determined using the broth microdilution method (Wirker, M. A. Methods for Dilution Antimicrobial Susceptibility Tests for Bacteria that Grow Aerobically: Approved Standard M07-A8; Clinical and Laboratory Standards Institute, Wayne, Pa., 2009). Seven reference strains (Acinetobacter baumannii ATCC 19606, Escherichia coli ATCC 25922, Klebsiella pneumoniae ATCC 13883, Pseudomonas aeruginosa ATCC 27853, Enterococcus faecium ATCC 19434, Staphylococcus aureus ATCC 29213 and methicillin-resistant S. aureus ATCC 43300) were subjected to MIC testing.
(§4) Paenipeptin analogues were two-fold diluted in tryptic soy broth (TSB; Becton Dickinson) and mixed with an equal volume of bacterial suspensions in TSB containing approximately 1.5×10^5 colony-forming units (CFU)/mL in a clear UV-sterilized 96-well microtiter plate (NBS, Corning Inc., Corning, N.Y.). […] The microtiter plate was incubated at 37° C. for 18-20 h.
(§5) There were at least three independent experiments with one replicate in each experiment.

K. pneumoniae UAMS-KPPR3 = test: MIC, polymyxin-resistant strain; type: cell-based, Klebsiella pneumoniae
Description: as §3, §4, §5

[1] = system: Escherichia coli AR 0494 (mcr-1); settings: E. coli AR 0494, mcr-1, polymyxin-resistant
Description: (§6) The minimum inhibitory concentration (MIC) of paenipeptin analogues was determined using the broth microdilution method (Wirker, M. A. Methods for Dilution Antimicrobial Susceptibility Tests for Bacteria that Grow Aerobically: Approved Standard M07-A8; Clinical and Laboratory Standards Institute, Wayne, Pa., 2009).
as §4, §5

E. coli UAMS-ECPR1 = settings: E. coli UAMS-ECPR1, polymyxin-resistant
Description: as §6, §4, §5

E. coli UAMS-ECPR2 = settings: E. coli UAMS-ECPR2, polymyxin-resistant
Description: as §6, §4, §5

[2] = system: Klebsiella pneumoniae AR 0109; settings: K. pneumoniae AR 0109, polymyxin-resistant
Description: as §6, §4, §5

[3] = system: Acinetobacter baumannii ATCC 19606; type: cell-based; settings: ATCC 19606
Description: as §3, §4

[4] = system: Escherichia coli ATCC 25922; type: cell-based; settings: ATCC 25922
[5] = system: Klebsiella pneumoniae ATCC 13883; type: cell-based; settings: ATCC 13883
Description: as §3, §4

[6] = system: Pseudomonas aeruginosa ATCC 27853; type: cell-based; settings: ATCC 27853
[7] = system: Enterococcus faecium ATCC 19434; type: cell-based; settings: ATCC 19434
Description: as §3, §4

[8] = system: Staphylococcus aureus ATCC 29213; type: cell-based; settings: ATCC 29213
Description: as §3, §4

[9] = system: methicillin-resistant S. aureus ATCC 43300; type: cell-based, Staphylococcus aureus; settings: ATCC 43300
rabbit red blood cells = test: Hemolytic activity; type: cell-based; settings: for Hemolysis: relative to Triton X-100
How it was run: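 Washed defibrinated rabbit RBCs in PBS pH 7.2 incubated 30 min at 37 °C with paenipeptin analogues at 16–128 μg/mL final. Released hemoglobin read at 415 nm in the supernatant; % hemolysis relative to 0.1% Triton X-100.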

Cytotoxicity, MTT assay = type: cell-based, human; settings: human, HEK 293 cells
Description: Cytotoxicity of paenipeptin analogues was determined against a human kidney cell line (HEK 293) using MTT assays (Huang E, Yousef AE. 2014. Paenibacterin, a novel broad-spectrum lipopeptide antibiotic, neutralises endotoxins and promotes survival in a murine model of Pseudomonas aeruginosa-induced sepsis. Int J Antimicrob Agents 44: 74-77). Cell viability was measured at 24 h following the addition of lipopeptides at concentrations between 30-105 μg/ml. The viability of human embryonic kidney cells (HEK 293) decreased with the increase of paenipeptin concentration. The viability of HEK 293 cells in the presence of paenipeptin analogue 1 and 15 at 105 μg/ml was 61% and 67%, respectively (Table 10). The relatively low cytotoxicity of paenipeptin analogue 1 and 15 was correlated with their low hemolytic activity against red blood cells.

[10] = system: Acinetobacter baumannii ATCC 19606; test: MIC of antibiotics with or without paenipeptin analogues (potentiation); type: cell-based; settings: A. baumannii ATCC 19606
Text: (§1) Gram-negative bacteria, including Acinetobacter and Klebsiella, are intrinsically resistant to the hydrophobic antibiotic rifampicin.

[11] = system: Klebsiella pneumoniae ATCC 13883; test: as above; type: cell-based; settings: K. pneumoniae ATCC 13883
Text: as §1

[12] = system: A. baumannii FDA-CDC AR 0063; type: cell-based, Acinetobacter baumannii; settings: FDA-CDC AR 0063, 24 h
Description: (§2) Bacterial viable counts were determined at 0, 2, 4, 6, and 24 h after antimicrobial treatment. Bacterial surviving counts at 24 h endpoints were subjected to analysis of variance (ANOVA) followed by Tukey's honest significant difference (HSD) tests using SPSS Statistics (version 24; SPSS, Inc., Chicago, Ill., USA).

[13] = system: A. baumannii FDA-CDC AR 0063; test: Time-kill kinetics in 95% human serum, alone and combined; type: cell-based, Acinetobacter baumannii; settings: A. baumannii AR 0063, 24 h
Description: as §2
To further test the therapeutic potential of paenipeptin analogues, the time-kill kinetics assays of paenipeptins alone or in combination with other antibiotics were performed in 95% human serum in vitro. Without antimicrobial treatment, the population of A. baumannii FDA-CDC AR 0063 increased from 5.8 log to 9.3 log within 24 h. […] (FIG. 7A).

[14] = system: K. pneumoniae FDA-CDC AR0097; test: as above; type: cell-based, Klebsiella pneumoniae
Description: as §2
To further test the therapeutic potential of paenipeptin analogues, the time-kill kinetics assays of paenipeptins alone or in combination with other antibiotics were performed in 95% human serum in vitro.

[15] = system: A. baumannii FDA-CDC AR 0037; settings: A. baumannii AR 0037
[16] = system: A. baumannii FDA-CDC AR 0052; settings: FDA-CDC AR 0052
[17] = system: A. baumannii FDA-CDC AR 0063; settings: A. baumannii AR 0063
[18] = system: A. baumannii FDA-CDC AR 0083; settings: A. baumannii AR 0083
[19] = system: K. pneumoniae FDA-CDC AR 0034; settings: K. pneumoniae AR 0034
[20] = system: K. pneumoniae FDA-CDC AR 0044
[21] = system: K. pneumoniae FDA-CDC AR 0068
[22] = system: K. pneumoniae FDA-CDC AR 0080; settings: K. pneumoniae AR 0080
[23] = system: K. pneumoniae FDA-CDC AR 0097; settings: K. pneumoniae AR 0097
[24] = system: K. pneumoniae FDA-CDC AR 0097; test: Time-kill kinetics in tryptic soy broth, alone and combined; type: cell-based, Klebsiella pneumoniae; settings: K. pneumoniae AR 0097; TSB; analogues 4 μg/ml, antibiotics 1 μg/ml
Description: as §2

[25] = system: A. baumannii FDA-CDC AR 0037; test: microbe, parasite or virus in culture; settings: Acinetobacter baumannii, read-out: MIC alone
[26] = system: A. baumannii FDA-CDC AR 0052; test: microbe, parasite or virus in culture; settings: Acinetobacter baumannii, read-out: MIC alone
[27] = system: A. baumannii FDA-CDC AR 0063; test: microbe, parasite or virus in culture; settings: Acinetobacter baumannii, read-out: MIC alone
[28] = system: A. baumannii FDA-CDC AR 0070; test: microbe, parasite or virus in culture; settings: Acinetobacter baumannii, read-out: MIC alone
[29] = system: A. baumannii FDA-CDC AR 0083; test: microbe, parasite or virus in culture; settings: Acinetobacter baumannii, read-out: MIC alone
[30] = system: K. pneumoniae FDA-CDC AR 0034; test: microbe, parasite or virus in culture; settings: Klebsiella pneumoniae, read-out: MIC alone
[31] = system: K. pneumoniae FDA-CDC AR 0044; test: microbe, parasite or virus in culture; settings: Klebsiella pneumoniae, read-out: MIC alone
[32] = system: K. pneumoniae FDA-CDC AR 0068; test: microbe, parasite or virus in culture; settings: Klebsiella pneumoniae, read-out: MIC alone
[33] = system: K. pneumoniae FDA-CDC AR 0080; test: microbe, parasite or virus in culture; settings: Klebsiella pneumoniae, read-out: MIC alone
[34] = system: K. pneumoniae FDA-CDC AR 0097; test: microbe, parasite or virus in culture; settings: Klebsiella pneumoniae, read-out: MIC alone

Polymyxin B [reference compound]
Minimum inhibitory concentration (K. pneumoniae UAMS-KPPR1): >32 µg/mL | Minimum inhibitory concentration (K. pneumoniae UAMS-KPPR3): >32 µg/mL | Minimum inhibitory concentration [1]: 2 to 8 µg/mL | Minimum inhibitory concentration (E. coli UAMS-ECPR1): 32 µg/mL | Minimum inhibitory concentration (E. coli UAMS-ECPR2): 32 µg/mL | Minimum inhibitory concentration [2]: 16 to 32 µg/mL

CCCCCC(=O)N[C@@H](CCN)C(=O)N[C@H](C(=O)N[C@@H](CCN)C(=O)N[C@H](Cc1ccccc1)C(=O)N[C@@H](CC(C)C)C(=O)N[C@@H](CCN)C(=O)N[C@@H](C(=O)N[C@@H](CC(C)C)C(=O)N[C@@H](CO)C(N)=O)C(C)C)[C@@H](C)CC [Analogue 1] (Hexanoyl-[Dab]I[Dab][dF]L[Dab][dV]LS-NH2)
MIC [3]: >32 µg/mL | MIC [4]: 8 to 16 µg/mL | MIC [5]: ≥32 µg/mL | MIC [6]: 8 to 16 µg/mL | MIC [7]: >32 µg/mL | MIC [8]: >32 µg/mL | MIC [9]: >32 µg/mL | Hemolysis (rabbit red blood cells; 16 μg/mL): 0.48 ± 0.64% | Hemolysis (rabbit red blood cells; 32 μg/mL): 0.41 ± 0.58% | Hemolysis (rabbit red blood cells; 64 μg/mL): 0.08 ± 0.85% | hemolytic activity (in words) (rabbit red blood cells; 128 μg/mL): little hemolysis; also recorded: nonhemolytic | Hemolysis (rabbit red blood cells; 128 μg/mL): 0.61 ± 0.25% | viability at 24 h, 30 µg/mL (Cytotoxicity, MTT assay): 85.2 ± 10.2% | viability at 24 h, 45 µg/mL (Cytotoxicity, MTT assay): 78.4 ± 11.2% | viability at 24 h, 60 µg/mL (Cytotoxicity, MTT assay): 78.4 ± 13.5% | viability at 24 h, 75 µg/mL (Cytotoxicity, MTT assay): 73.1 ± 11.3% | viability at 24 h, 90 µg/mL (Cytotoxicity, MTT assay): 69 ± 8.14% | viability at 24 h, 105 µg/mL (Cytotoxicity, MTT assay): 61 ± 6.38% | MIC of rifampicin at 2 μg/mL of paenipeptin analogue [10]: 0.0078-0.0156 μg/ml | MIC of rifampicin at 4 μg/mL of paenipeptin analogue [10]: 0.00195-0.0039 μg/ml | Sensitization factor (rifampicin) ([10]; MIC without / with 4 μg/mL paenipeptin): 4,096-8,192 | MIC of rifampicin at 2 μg/mL of paenipeptin analogue [11]: 0.0039 μg/ml | MIC of rifampicin at 4 μg/mL of paenipeptin analogue [11]: 0.00195 μg/ml | log reduction, analogue 4 μg/ml in combination with rifampicin 1 μg/ml [12]: 4.7-5.1 log | decrease of bacterial population, analogue 4 μg/ml in combination with rifampicin 4 μg/ml [13]: 2.7 log | log reduction, analogue 4 μg/ml in combination with clarithromycin 4 μg/ml [13]: 1.3 log | log reduction, analogue 4 μg/ml in combination with clarithromycin 4 μg/ml ([14]; 24 h): 4.9 log | log reduction, analogue 4 μg/ml in combination with rifampicin 4 μg/ml ([14]; 24 h): 4.9 log | log inactivation, single agent at 4 μg/ml ([14]; within 24 h): 4.2 log | MIC of clarithromycin at the presence of PMBN or paenipeptin analogue at 4 μg/ml [15]: 0.0313 μg/ml | MIC of rifampicin at the presence of PMBN or paenipeptin analogue at 4 μg/ml [15]: 0.0039 μg/ml | increase in antibiotic activity of clarithromycin ([15]; analogue at 4 μg/mL): 512 fold | MIC alone [16]: 2 to 4 µg/mL | MIC of clarithromycin at the presence of PMBN or paenipeptin analogue at 4 μg/ml [17]: 0.0313 μg/ml | MIC of rifampicin at the presence of PMBN or paenipeptin analogue at 4 μg/ml [17]: ≤0.0019 μg/ml | MIC of clarithromycin at the presence of PMBN or paenipeptin analogue at 4 μg/ml [18]: 16 μg/ml | MIC of rifampicin at the presence of PMBN or paenipeptin analogue at 4 μg/ml [18]: 0.25-0.5 μg/ml | MIC of clarithromycin at the presence of PMBN or paenipeptin analogue at 4 μg/ml [19]: 0.25 μg/ml | MIC of rifampicin at the presence of PMBN or paenipeptin analogue at 4 μg/ml [19]: ≤0.0019 μg/ml | MIC alone ([20]; FDA-CDC AR 0044): 16 µg/mL (≈ 14.7 µM) | MIC of clarithromycin at the presence of PMBN or paenipeptin analogue at 4 μg/ml ([20]; K. pneumoniae AR 0044): 0.0156 μg/ml | MIC of rifampicin at the presence of PMBN or paenipeptin analogue at 4 μg/ml ([20]; K. pneumoniae AR 0044): ≤0.0019 μg/ml | MIC alone ([21]; FDA-CDC AR 0068): >32 µg/mL | MIC of clarithromycin at the presence of PMBN or paenipeptin analogue at 4 μg/ml ([21]; K. pneumoniae AR 0068): 1 μg/ml | MIC of rifampicin at the presence of PMBN or paenipeptin analogue at 4 μg/ml ([21]; K. pneumoniae AR 0068): 0.0039-0.0156 μg/ml | MIC of clarithromycin at the presence of PMBN or paenipeptin analogue at 4 μg/ml [22]: 0.0313 μg/ml | MIC of rifampicin at the presence of PMBN or paenipeptin analogue at 4 μg/ml [22]: 0.0625 μg/ml | MIC of clarithromycin at the presence of PMBN or paenipeptin analogue at 4 μg/ml [23]: 0.0313-0.0625 μg/ml | MIC of rifampicin at the presence of PMBN or paenipeptin analogue at 4 μg/ml [23]: 0.0039-0.0078 μg/ml

CC[C@H]1OC(=O)[C@H](C)[C@@H](O[C@H]2C[C@@](C)(OC)[C@@H](O)[C@H](C)O2)[C@H](C)[C@@H](O[C@@H]2O[C@H](C)C[C@H](N(C)C)[C@H]2O)[C@](C)(OC)C[C@@H](C)C(=O)[C@H](C)[C@@H](O)[C@]1(C)O [clarithromycin]
bactericidal activity, single agent (in words) [24]: not bactericidal | MIC [25]: 16 µg/mL (≈ 21.4 µM) | MIC [26]: 4 µg/mL (≈ 5.35 µM) | MIC [27]: 16 to 32 µg/mL (≈ 21.4 to 42.8 µM) | MIC [28]: 2 to 4 µg/mL (≈ 2.67 to 5.35 µM) | MIC [29]: > 32 µg/mL | MIC [30]: > 32 µg/mL | MIC [31]: > 32 µg/mL | MIC [32]: > 32 µg/mL | MIC [33]: > 32 µg/mL | MIC [34]: > 32 µg/mL
